These are literature values, as cited in patent US20080221033A1, “Monitoring of Cardiac Natriuretic Peptides During Diagnosis, Management, and Treatment of Cardiac Diseases” (Koninklijke Philips Electronics N. V., priority 2005, published 2008).

Read-outs that look alike come from different tables or passages of the source.

Data set [1] deals with patients hospitalized with congestive heart failure.
Setting [2] is: patients hospitalized with congestive heart failure.

As for brain natriuretic peptide [BNP], the “terminal half-life in the bloodstream (in words)” value (in vivo) is “a few minutes to a few hours”.
As for nesiritide, the “effectiveness versus parenteral vasodilators and inotropic agents” value in data set [1] (decompensated heart failure, vs nitroprusside, nitroglycerin, dobutamine, milrinone) is on record as “more effective”. For the same molecule, in data set [1] (human, in vivo), the onset of action was 15 min; the “tolerability versus parenteral vasodilators and inotropic agents” value is reported as “better tolerated”. Moreover, in data set [1] (setting [2]), the pulmonary arterial pressure result was “reduces”, the “pulmonary capillary wedge pressure” value was “reduces”, the right atrial pressure entry was “reduces” and the systemic vascular resistance entry is given as “reduces”. The “onset of therapeutic action” value in data set [1] (typical cardiac patients) is recorded as “about 15 minutes”.

B1: N-terminal pro-BNP (protein, UniProt P16860 27-102, looked up)
NT-proBNP: HPLGSPGSASDLETSGLQEQRNHLQGKLSELQVEQTSLEPLQESPRPTGVWKSREVATEGIRGHRKMVLYTLRAPR
modifications: NT-proBNP
On to B1, for which the “terminal half-life in the bloodstream (in words)” value (bloodstream, 'believed to be') was “about a month or longer”.
